From the supplement of paper PMC10307832

Legend:
[1] = compound: CC1CC(=O)N(C2=CN=C(N=C2N1C3CCCC3)NC4=C(C=C(C=C4)C(=O)NC5CCN(CC5)C)OC)C [NPK76-II-72-1]; experiment: relative viability (nuclei count vs DMSO), 5 days (fraction); higher = more cells survive
In short: (§1)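 Lung cancer cell lines received five library-drug doses (not always all listed) spaced by √10, pinned on vehicle-anchored 1536-well plates after an overnight stay at 37 °C. Five days later, with no medium change, nuclei were Hoechst-stained, imaged at 4× and counted with MetaXpress. Viability is treated-well nuclei relative to vehicle-well nuclei, as a median across plates. Passing plates had control CV below 25% and at least one doubling.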

[2] = compound: CC[C@@H]1C(=O)N(C)c2cnc(Nc3ccc(C(=O)NC4CCN(C)CC4)cc3OC)nc2N1C1CCCC1 [BI-2536]; experiment: as above
In short: as §1

Cell Line: NCI-H2170
- relative viability ([1]; 0.01 µM): 0.939
- relative viability ([1]; 0.03162 µM): 0.977
- relative viability ([1]; 0.1 µM): 0.928
- relative viability ([1]; 0.3162 µM): 0.71
- relative viability ([1]; 1 µM): 1.11
- relative viability ([2]; 0.01 µM): 0.971
- relative viability ([2]; 0.03162 µM): 0.896
- relative viability ([2]; 0.1 µM): 0.273
- relative viability ([2]; 0.3162 µM): 0.204
- relative viability ([2]; 1 µM): 0.204

Cell Line: NCI-H2228
- relative viability ([1]; 0.01 µM): 0.945
- relative viability ([1]; 0.03162 µM): 0.974
- relative viability ([1]; 0.1 µM): 1.08
- relative viability ([1]; 0.3162 µM): 0.883
- relative viability ([1]; 1 µM): 1.06
- relative viability ([2]; 0.01 µM): 0.972
- relative viability ([2]; 0.03162 µM): 0.991
- relative viability ([2]; 0.1 µM): 0.279
- relative viability ([2]; 0.3162 µM): 0.142
- relative viability ([2]; 1 µM): 0.228

Cell Line: NCI-H2342
- relative viability ([1]; 0.01 µM): 1.02
- relative viability ([1]; 0.03162 µM): 1.08
- relative viability ([1]; 0.1 µM): 0.954
- relative viability ([1]; 0.3162 µM): 0.823
- relative viability ([1]; 1 µM): 1.04
- relative viability ([2]; 0.01 µM): 0.818
- relative viability ([2]; 0.03162 µM): 0.909
- relative viability ([2]; 0.1 µM): 0.865
- relative viability ([2]; 0.3162 µM): 0.418
- relative viability ([2]; 1 µM): 0.393

Cell Line: NCI-H2347
- relative viability ([1]; 0.01 µM): 0.924
- relative viability ([1]; 0.03162 µM): 1.05
- relative viability ([1]; 0.1 µM): 0.948
- relative viability ([1]; 0.3162 µM): 0.982
- relative viability ([1]; 1 µM): 1.05
- relative viability ([2]; 0.01 µM): 0.942
- relative viability ([2]; 0.03162 µM): 1.07
- relative viability ([2]; 0.1 µM): 0.941
- relative viability ([2]; 0.3162 µM): 0.483
- relative viability ([2]; 1 µM): 0.43

Cell Line: NCI-H2405
- relative viability ([1]; 0.01 µM): 0.986
- relative viability ([1]; 0.03162 µM): 0.991
- relative viability ([1]; 0.1 µM): 1.03
- relative viability ([1]; 0.3162 µM): 1.01
- relative viability ([1]; 1 µM): 1.05
- relative viability ([2]; 0.01 µM): 0.965
- relative viability ([2]; 0.03162 µM): 0.918
- relative viability ([2]; 0.1 µM): 0.465
- relative viability ([2]; 0.3162 µM): 0.279
- relative viability ([2]; 1 µM): 0.406

Cell Line: NCI-H3122
- relative viability ([1]; 0.01 µM): 0.97
- relative viability ([1]; 0.03162 µM): 1.01
- relative viability ([1]; 0.1 µM): 0.988
- relative viability ([1]; 0.3162 µM): 1
- relative viability ([1]; 1 µM): 1
- relative viability ([2]; 0.01 µM): 0.992
- relative viability ([2]; 0.03162 µM): 0.942
- relative viability ([2]; 0.1 µM): 0.243
- relative viability ([2]; 0.3162 µM): 0.173
- relative viability ([2]; 1 µM): 0.145

Cell Line: PC-3 [JPC-3]
- relative viability ([1]; 0.01 µM): 1.02
- relative viability ([1]; 0.03162 µM): 1.11
- relative viability ([1]; 0.1 µM): 0.945
- relative viability ([1]; 0.3162 µM): 1.08
- relative viability ([1]; 1 µM): 1.07
- relative viability ([2]; 0.01 µM): 1.07
- relative viability ([2]; 0.03162 µM): 0.99
- relative viability ([2]; 0.1 µM): 0.751
- relative viability ([2]; 0.3162 µM): 0.281
- relative viability ([2]; 1 µM): 0.282

Cell Line: PC-14
- relative viability ([1]; 0.01 µM): 0.94
- relative viability ([1]; 0.03162 µM): 1.05
- relative viability ([1]; 0.1 µM): 0.992
- relative viability ([1]; 0.3162 µM): 0.997
- relative viability ([1]; 1 µM): 1.04
- relative viability ([2]; 0.01 µM): 0.998
- relative viability ([2]; 0.03162 µM): 0.926
- relative viability ([2]; 0.1 µM): 0.681
- relative viability ([2]; 0.3162 µM): 0.0519
- relative viability ([2]; 1 µM): 0.0481

Cell Line: RERF-LC-KJ
- relative viability ([1]; 0.01 µM): 0.959
- relative viability ([1]; 0.03162 µM): 1.01
- relative viability ([1]; 0.1 µM): 0.986
- relative viability ([1]; 0.3162 µM): 0.889
- relative viability ([1]; 1 µM): 1.06
- relative viability ([2]; 0.01 µM): 0.987
- relative viability ([2]; 0.03162 µM): 1.01
- relative viability ([2]; 0.1 µM): 0.765
- relative viability ([2]; 0.3162 µM): 0.211
- relative viability ([2]; 1 µM): 0.237

Cell Line: SK-LU-1
- relative viability ([1]; 0.01 µM): 0.987
- relative viability ([1]; 0.03162 µM): 1.02
- relative viability ([1]; 0.1 µM): 1.02
- relative viability ([1]; 0.3162 µM): 0.947
- relative viability ([1]; 1 µM): 1.01
- relative viability ([2]; 0.01 µM): 1.03
- relative viability ([2]; 0.03162 µM): 0.989
- relative viability ([2]; 0.1 µM): 0.477
- relative viability ([2]; 0.3162 µM): 0.248
- relative viability ([2]; 1 µM): 0.225

Cell Line: SK-MES-1
- relative viability ([1]; 0.01 µM): 0.986
- relative viability ([1]; 0.03162 µM): 1.03
- relative viability ([1]; 0.1 µM): 0.989
- relative viability ([1]; 0.3162 µM): 1.01
- relative viability ([1]; 1 µM): 1.09
- relative viability ([2]; 0.01 µM): 1.07
- relative viability ([2]; 0.03162 µM): 0.975
- relative viability ([2]; 0.1 µM): 0.614
- relative viability ([2]; 0.3162 µM): 0.196
- relative viability ([2]; 1 µM): 0.179

Cell Line: SW 900
- relative viability ([1]; 0.01 µM): 0.786
- relative viability ([1]; 0.03162 µM): 0.757
- relative viability ([1]; 0.1 µM): 0.796
- relative viability ([1]; 0.3162 µM): 0.936
- relative viability ([1]; 1 µM): 0.947
- relative viability ([2]; 0.01 µM): 0.883
- relative viability ([2]; 0.03162 µM): 0.937
- relative viability ([2]; 0.1 µM): 0.696
- relative viability ([2]; 0.3162 µM): 0.244
- relative viability ([2]; 1 µM): 0.205

Cell Line: SW 1573
- relative viability ([1]; 0.01 µM): 0.902
- relative viability ([1]; 0.03162 µM): 1
- relative viability ([1]; 0.1 µM): 0.988
- relative viability ([1]; 0.3162 µM): 0.956
- relative viability ([1]; 1 µM): 0.969
- relative viability ([2]; 0.01 µM): 1.05
- relative viability ([2]; 0.03162 µM): 0.921
- relative viability ([2]; 0.1 µM): 0.487
- relative viability ([2]; 0.3162 µM): 0.131
- relative viability ([2]; 1 µM): 0.134
